Entries after “also recorded” stand apart in the source; their conditions may differ. Read-outs that look alike come from different tables or passages of the source.
Key:
Penicillinase [1] = biological target: T1, Penicillinase (Bacillus cereus, UniProt P10424); test: Stability to β-lactamases, disc method, penicillinase (Table 2); format: cell-based; conditions: penicillinase 0.048 unit/ml; E. coli PG8; compound 100 g/ml (so in the source)
T1 construct: purchased Calbio Chemical, U.S.A; host or cells: Bacillus cereus
Method: (§1) Note: Used concentration of the compound; 100 µg/ml Employed strain;
(§2) Escherichia coli PG8 Culture medium; Nutrient agar medium (pH 7.0)
(§3) containing diaminopimelic acid (20 mg/l)
(Note 2) Penicillinase derived from Bacillus cereus (produced by Calbio
Chemical, U.S.A.)0.048 unit/ml.

[2] = tested on: Escherichia coli NIHJ JC-2; test: MIC, antibacterial spectrum (nutrient agar); format: cell-based; conditions: NIHJJC2, nutrient agar pH 7.0, 10^6 CFU/ml, sodium salt, read-out: Minimal inhibitory concentration
Source text: (§4) | Culture medium: Nutrient agar (pH 7.0) concentration of microorganisms | inoculated: 10^6 CFU (colony forming unit)/ml.

[3] = tested on: Serratia marcescens IFO 12648; test: MIC, antibacterial spectrum (nutrient agar); format: cell-based; conditions: IFO12648, nutrient agar pH 7.0, 10^6 CFU/ml, sodium salt, read-out: Minimal inhibitory concentration
Source text: as §4

[4] = tested on: Bacillus subtilis NIHJ PCI219; test: MIC, antibacterial spectrum (nutrient agar); format: cell-based; conditions: NIHJPCI219, nutrient agar pH 7.0, 10^6 CFU/ml, sodium salt, read-out: Minimal inhibitory concentration
Source text: as §4

[5] = tested on: Klebsiella pneumoniae IFO 3317; test: MIC, antibacterial spectrum (nutrient agar); format: cell-based; conditions: IFO3317, nutrient agar pH 7.0, 10^6 CFU/ml, sodium salt, read-out: Minimal inhibitory concentration
Source text: as §4

[6] = tested on: Bacillus megaterium IFO 12108; test: MIC, antibacterial spectrum (nutrient agar); format: cell-based; conditions: Priestia megaterium, IFO12108, nutrient agar pH 7.0, 10^6 CFU/ml, sodium salt, read-out: Minimal inhibitory concentration
Source text: as §4

[7] = tested on: Proteus mirabilis ATCC 21100; test: MIC, antibacterial spectrum (nutrient agar); format: cell-based; conditions: ATCC21100, nutrient agar pH 7.0, 10^6 CFU/ml, sodium salt, read-out: Minimal inhibitory concentration
Source text: as §4

[8] = tested on: Pseudomonas aeruginosa IFO 3080; test: MIC, antibacterial spectrum (nutrient agar); format: cell-based; conditions: IFO3080, nutrient agar pH 7.0, 10^6 CFU/ml, sodium salt, read-out: Minimal inhibitory concentration
Source text: as §4

[9] = tested on: Alcaligenes faecalis IFO 13111; test: MIC, antibacterial spectrum (nutrient agar); format: cell-based; conditions: IFO13111, nutrient agar pH 7.0, 10^6 CFU/ml, sodium salt, read-out: Minimal inhibitory concentration
Source text: as §4

[10] = tested on: Proteus vulgaris IFO 3988; test: MIC, antibacterial spectrum (nutrient agar); format: cell-based; conditions: IFO3988, nutrient agar pH 7.0, 10^6 CFU/ml, sodium salt, read-out: Minimal inhibitory concentration
Source text: as §4

[11] = tested on: Staphylococcus aureus FDA 209P; test: MIC, antibacterial spectrum (nutrient agar); format: cell-based; conditions: FDA209P, nutrient agar pH 7.0, 10^6 CFU/ml, sodium salt, read-out: Minimal inhibitory concentration
Source text: as §4

[12] = tested on: Salmonella typhimurium IFO 12529; test: MIC, antibacterial spectrum (nutrient agar); format: cell-based; conditions: Salmonella enterica, nutrient agar pH 7.0, 10^6 CFU/ml, sodium salt, read-out: Minimal inhibitory concentration
Source text: as §4

gram-negative bacteria = test: Antibacterial activity against gram-negative bacteria (statement in words); format: cell-based
[13] = Acute toxicity, subcutaneous administration to mice; format: in vivo; conditions: for toxicity: conclusion from 1 g/kg s.c. in mice; for death: mice, subcutaneous, 1 g/kg, sodium salt
Escherichia coli PG8 = test: Stability to β-lactamases, disc method, non-added control (Table 2); format: cell-based; conditions: PG8, read-out: Diameter of growth inhibition zone (by the disc method)
Method: as §1, §2, §3

Solubility = conditions: sodium salt
β-lactamases = test: Stability to β-lactamases (statement in words); format: cell-based
Cephalosporinase [14] = biological target: T2, Cephalosporinase (Enterobacter cloacae, UniProt P05364); test: Stability to β-lactamases, disc method, cephalosporinase (Table 2); format: cell-based; conditions: cephalosporinase 0.025 unit/ml; E. coli PG8; compound 100 g/ml (so in the source)
T2 construct: host or cells: Enterobacter cloacae
Method: as §1, §2, §3
(Note 3) Cephalosprinase is derived from Enterobacter cloacae, 0.025

gram-positive bacteria = test: Antibacterial activity against gram-positive bacteria (statement in words); format: cell-based
[15] = tested on: Pseudomonas aeruginosa C141; test: Stability to β-lactamases, disc method, non-added control (Table 5); format: cell-based; conditions: read-out: Diameter of growth inhibition zone (by the disc method); for zone of inhibition at 100 µg/mL: P. aeruginosa C141, other compounds 100 μg/ml
Method: (§5) Concentration of the compound (II) 1000 μg/ml
(§6) Concentration of the other compounds: 100 μg/ml
(§7) Strain used: Pseudomonas aeruginosa C141
(§8) Culture medium: Nutrient agar medium (pH 7.0) containing diaminopimeric

Cephalosporinase [16] = biological target: T2, Cephalosporinase; test: Stability to β-lactamases, disc method, cephalosporinase (Table 5); format: cell-based; conditions: cephalosporinase 0.025 unit/ml, P. aeruginosa C141
Method: as §5, §6, §7, §8
(Note 4) The enzyme is derived from Enterobacter cloacae, 0.025 unit/ml.

Penicillinase [17] = biological target: T1, Penicillinase; test: Stability to β-lactamases, disc method, penicillinase (Table 5); format: cell-based; conditions: penicillinase 0.048 unit/ml, P. aeruginosa C141
Method: as §5, §6, §7, §8
(Note 3) Penicillinase (Calbio Chemical, U.S.A.) derived from Bacillus

[18] = Stability in aqueous solution; format: physicochemical; conditions: for Stability: hydrochloride(s)
Escherichia coli CP 13 = test: Antibacterial spectrum, growth inhibition zone (Table 4); format: cell-based; conditions: CP13, E. coli CP 13, compound (II) 1000 μg/ml, pH 7.0, sodium salt, read-out: Diameter of growth inhibition zone
Method: as §8
(§9) Concentration of the compound (II): 1000 μg/ml.

[19] = tested on: Staphylococcus aureus FDA 209P; test: as above; format: cell-based; conditions: FDA209P, compound (II) 1000 μg/ml, pH 7.0, sodium salt, read-out: Diameter of growth inhibition zone
Method: as §8, §9

[20] = tested on: Pseudomonas aeruginosa C141; test: as above; format: cell-based; conditions: compound (II) 1000 μg/ml, pH 7.0, sodium salt, read-out: Diameter of growth inhibition zone
Method: as §8, §9

T1 sequence (P10424 44-306): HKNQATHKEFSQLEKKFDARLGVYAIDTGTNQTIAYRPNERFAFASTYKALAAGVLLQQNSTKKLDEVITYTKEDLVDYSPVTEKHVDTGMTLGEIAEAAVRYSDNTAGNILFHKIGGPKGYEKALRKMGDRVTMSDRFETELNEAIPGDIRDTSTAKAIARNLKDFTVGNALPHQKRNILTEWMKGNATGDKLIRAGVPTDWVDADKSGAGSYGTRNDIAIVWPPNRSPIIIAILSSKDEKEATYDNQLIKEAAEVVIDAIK
T2 sequence (P05364 21-381): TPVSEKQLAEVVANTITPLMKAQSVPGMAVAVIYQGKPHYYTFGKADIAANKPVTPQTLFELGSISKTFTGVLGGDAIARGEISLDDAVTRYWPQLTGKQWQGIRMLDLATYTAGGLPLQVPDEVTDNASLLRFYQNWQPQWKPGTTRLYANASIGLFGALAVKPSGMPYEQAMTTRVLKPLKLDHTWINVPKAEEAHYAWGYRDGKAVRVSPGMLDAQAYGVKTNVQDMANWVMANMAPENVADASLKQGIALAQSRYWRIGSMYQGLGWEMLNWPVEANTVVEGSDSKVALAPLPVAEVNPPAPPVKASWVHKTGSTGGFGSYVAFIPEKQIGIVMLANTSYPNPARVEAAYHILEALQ

## NC(CCCC(=O)N[C@]1(NC=O)C(=O)N2C(C(=O)O)=C(CO)CSC21)C(=O)O (stereo partly drawn) [7-FA-DCPC, 7-formylamino-deacetylcephalosporin C]
Penicillinase [1]
  Diameter of growth inhibition zone (by the disc method): 23 mm
[2]
  MIC: 50 µg/mL
[3]
  MIC: 25 µg/mL
[4]
  MIC: 100 µg/mL
[5]
  MIC: 50 µg/mL
[6]
  MIC: 100 µg/mL
[7]
  MIC: 12.5 µg/mL
[8]
  MIC: 100 µg/mL
[9]
  MIC: 12.5 µg/mL
[10]
  MIC: 25 µg/mL
[11]
  MIC: 100 µg/mL
[12]
  MIC: 25 µg/mL
gram-negative bacteria
  antibacterial activity: exhibits antibacterial activity
gram-negative bacteria; listed as compound (IV)
  antibacterial activity: exhibits antimicrobial activity
[13]
  toxicity: low toxicity
  death: no death was observed
Escherichia coli PG8
  zone of inhibition at 100 µg/mL: 23 mm
Solubility; diethyl ether and ethyl acetate
  Solubility: Sparingly soluble
Solubility; methanol
  Solubility: Soluble
Solubility; water
  Solubility: Readily soluble
β-lactamases
  Stability to β-lactamases: stable to various β-lactamases
β-lactamases; listed as compound (IV)
  Stability to β-lactamases: stable to β-lactamase producing strains
Cephalosporinase [14]
  Diameter of growth inhibition zone (by the disc method): 23 mm
gram-positive bacteria
  antibacterial activity: exhibits antibacterial activity
gram-positive bacteria; listed as compound (IV)
  antibacterial activity: exhibits antimicrobial activity

## CO[C@@]1(NC(=O)CCC[C@@H](N)C(=O)O)C(=O)N2C(C(=O)O)=C(COC(N)=O)CS[C@@H]21 [CMC, Cephamycin C]
Penicillinase [1]
  Diameter of growth inhibition zone (by the disc method): 30 mm
Escherichia coli PG8
  zone of inhibition at 100 µg/mL: 30 mm
[15]
  zone of inhibition at 100 µg/mL: 27.5 mm
Cephalosporinase [14]
  Diameter of growth inhibition zone (by the disc method): < 8 mm
Cephalosporinase [16]; other compounds 100 μg/ml
  Diameter of growth inhibition zone (by the disc method): < 8 mm
Penicillinase [17]; other compounds 100 μg/ml
  Diameter of growth inhibition zone (by the disc method): 27.5 mm

## N[C@H](CCCC(=O)N[C@@H]1C(=O)N2C(C(=O)O)=C(CO)CS[C@H]12)C(=O)O [DCPC, deacetylcephalosporin C]
Penicillinase [1]
  Diameter of growth inhibition zone (by the disc method): 30 mm
Escherichia coli PG8
  zone of inhibition at 100 µg/mL: 30 mm
[15]
  zone of inhibition at 100 µg/mL: 30 mm
Cephalosporinase [14]
  Diameter of growth inhibition zone (by the disc method): < 8 mm
Cephalosporinase [16]; other compounds 100 μg/ml
  Diameter of growth inhibition zone (by the disc method): < 8 mm
Penicillinase [17]; other compounds 100 μg/ml
  Diameter of growth inhibition zone (by the disc method): 30 mm

## CC(N)C(=O)NC(CCCNC(=N)N)C(O)CC(=O)OCC1=C(C(=O)O)N2C(=O)[C@@](NC=O)(NC(=O)CCCC(N)C(=O)O)C2SC1 (stereo partly drawn) [TAN-547A]
[18]; acidic aqueous solution
  Stability: Unstable
[18]; basic aqueous solution
  Stability: Unstable
[18]; neutral aqueous solution
  Stability: slightly unstable

## CC(N)C(=O)NC(C)C(=O)NC(CCCNC(=N)N)C(O)CC(=O)OCC1=C(C(=O)O)N2C(=O)[C@@](NC=O)(NC(=O)CCCC(N)C(=O)O)C2SC1 (stereo partly drawn) [TAN-547B]
[18]; acidic aqueous solution
  Stability: Unstable
[18]; basic aqueous solution
  Stability: Unstable
[18]; neutral aqueous solution
  Stability: slightly unstable

## CC(N)C(=O)NC(C)C(=O)NC(C)C(=O)NC(CCCNC(=N)N)C(O)CC(=O)OCC1=C(C(=O)O)N2C(=O)[C@@](NC=O)(NC(=O)CCCC(N)C(=O)O)C2SC1 (stereo partly drawn) [TAN-547C]
[18]; acidic aqueous solution
  Stability: Unstable
[18]; basic aqueous solution
  Stability: Unstable
[18]; neutral aqueous solution
  Stability: slightly unstable

## CC(N)C(=O)NC(CCCNC(=N)N)C(O)CC(=O)OCC1=C(C(=O)O)N2C(=O)[C@@H](NC(=O)CCCC(N)C(=O)O)C2SC1 (stereo partly drawn) [TAN-547D]
[18]; acidic aqueous solution
  Stability: Slightly unstable
[18]; basic aqueous solution
  Stability: Unstable
[18]; neutral aqueous solution
  Stability: Slightly unstable

## CC(N)C(=O)NC(C)C(=O)NC(CCCNC(=N)N)C(O)CC(=O)OCC1=C(C(=O)O)N2C(=O)[C@@H](NC(=O)CCCC(N)C(=O)O)C2SC1 (stereo partly drawn) [TAN-547E]
[18]; acidic aqueous solution
  Stability: Slightly unstable
[18]; basic aqueous solution
  Stability: Unstable
[18]; neutral aqueous solution
  Stability: Slightly unstable

## CC(N)C(=O)NC(C)C(=O)NC(C)C(=O)NC(CCCNC(=N)N)C(O)CC(=O)OCC1=C(C(=O)O)N2C(=O)[C@@H](NC(=O)CCCC(N)C(=O)O)C2SC1 (stereo partly drawn) [TAN-547F]
[18]; acidic aqueous solution
  Stability: Slightly unstable
[18]; basic aqueous solution
  Stability: Unstable
[18]; neutral aqueous solution
  Stability: Slightly unstable

## N[C@]1(NC=O)C(=O)N2C(C(=O)O)=C(CO)CSC21 (stereo partly drawn) [compound (II)]
gram-negative bacteria
  antibacterial activity: exhibits antibacterial activity; also recorded: exhibits antimicrobial activity
[18]; compared with a cephem compound which is acetylated (--CH2OCOCH3 at 3-position)
  stability in aqueous solution: remarkably more stable in aqueous solution
Escherichia coli CP 13
  zone of inhibition at 1000 µg/mL: 11 mm
[19]
  zone of inhibition at 1000 µg/mL: < 8 mm
[20]
  zone of inhibition at 1000 µg/mL: 19 mm
[13]
  toxicity: low toxicity
  death: no death was observed
[15]; P. aeruginosa C141, compound (II) 1000 μg/ml
  zone of inhibition at 1000 µg/mL: 19 mm
β-lactamases
  Stability to β-lactamases: stable to various β-lactamases
Cephalosporinase [16]; compound (II) 1000 μg/ml
  Diameter of growth inhibition zone (by the disc method): 19 mm
Penicillinase [17]; compound (II) 1000 μg/ml
  Diameter of growth inhibition zone (by the disc method): 19 mm

Reference: US4723004A, “Cephem compounds” (priority 1984, dated 1988)
